Values quoted from earlier work in patent publication US20250325518A1, “USE OF A COMBINATION OF SACUBITRIL AND VALSARTAN” (Novartis AG, priority 2016, published 2025).

Tests used:
[1] = system: adult patients with HF with reduced ejection fraction (HFrEF); conditions: LCZ696 vs enalapril
[2] = system: patients 8 months to 14 years with HF due to congenital heart disease or cardiomyopathy; conditions: pediatric HF patients 8 months to 14 years; placebo-controlled

Compound	relative risk reduction (RRR), time to first occurrence of composite endpoint of CV death or HF hospitalization ([1]; N=8442, p=0.0000002) [%]	relative risk reduction (RRR), time to CV death ([1]; p=0.00004) [%]	relative risk reduction (RRR), time to first HF hospitalization ([1]; p=0.00004) [%]	composite measure of HF outcomes (worsening, improved or unchanged), primary endpoint [2]
trisodium [3-((1S,3R)-1-biphenyl-4-ylmethyl-3-ethoxycarbonyl-1-butylcarbamoyl)propionate-(S)-3′-methyl-2′-(pentanoyl{2″-(tetrazol-5-ylate)biphenyl-4′-ylmethyl}amino)butyrate] hemipentahydrate [LCZ696]	20	20	21	–
COc1ccccc1OCCNCC(O)COc1cccc2[nH]c3ccccc3c12 (stereo not shown) [carvedilol]	–	–	–	did not meet its composite primary endpoint
